Key:
[1] = test system: Monographella nivalis (Microdochium nivale); experiment: Monographella nivalis (Microdochium nivale) / liquid culture (foot rot cereals); assay type: cell-based; conditions: inhibition of growth determined photometrically 4-5 days after application, compared to untreated control
[2] = test system: Fusarium culmorum; experiment: microbe, parasite or virus in culture; assay type: cell-based; conditions: read-out: control of Fusarium culmorum
[3] = test system: Botryotinia fuckeliana (Botrytis cinerea); experiment: Botryotinia fuckeliana (Botrytis cinerea) / liquid culture (gray mould); assay type: cell-based; conditions: inhibition of growth determined photometrically 3-4 days after application, compared to untreated control
Experimental: Botryotinia fuckeliana (Botrytis cinerea)/Liquid Culture (Gray Mould) Conidia of the fungus from cryogenic storage are directly mixed into nutrient broth (Vogels broth). After placing a (DMSO) solution of test compound into a microtiter plate (96-well format), the nutrient broth containing the fungal spores is added. The test plates are incubated at 24° C. and the inhibition of growth is determined photometrically 3-4 days after application.

[4] = test system: Mycosphaerella graminicola (Septoria tritici); experiment: Mycosphaerella graminicola (Septoria tritici) / liquid culture (Septoria blotch); assay type: cell-based; conditions: Zymoseptoria tritici, inhibition of growth determined photometrically 4-5 days after application, compared to untreated control

Structure (SMILES) | inhibition of growth at 20 ppm [1] [%] | inhibition of growth at 20 ppm [2] [%] | inhibition of growth at 20 ppm [3] [%] | inhibition of growth at 6 ppm [4] [%] | melting point [°C]
CC1(C)CC(Cc2ccccn2)N=C(c2cnc3c(F)c(F)ccc3c2)S1 (stereo not drawn) [E.01, 2-(7,8-difluoro-3-quinolyl)-6,6-dimethyl-4-(2-pyridylmethyl)-4,5-dihydro-1,3-thiazine] | ≥ 80 | ≥ 80 | ≥ 80 |  | 
CC1(C)CC(Cc2cccc(F)n2)N=C(c2cnc3c(F)c(F)ccc3c2)S1 (stereo not drawn) [E.02, 2-(7,8-difluoro-3-quinolyl)-4-[(6-fluoro-2-pyridyl)methyl]-6,6-dimethyl-4,5-dihydro-1,3-thiazine] | ≥ 80 | ≥ 80 | ≥ 80 | ≥ 80 | 
CC1(C)CC(Cc2ccccn2)N=C(c2cnc3c(F)c(F)ccc3c2)O1 (stereo not drawn) [E.03, 2-(7,8-difluoro-3-quinolyl)-6,6-dimethyl-4-(2-pyridylmethyl)-4,5-dihydro-1,3-oxazine] | ≥ 80 |  | ≥ 80 |  | 120 to 123
CC1(C)CC(Cc2cccc(F)n2)N=C(c2cnc3c(F)c(F)ccc3c2)O1 (stereo not drawn) [E.04, 2-(7,8-difluoro-3-quinolyl)-4-[(6-fluoro-2-pyridyl)methyl]-6,6-dimethyl-4,5-dihydro-1,3-oxazine] | ≥ 80 | ≥ 80 | ≥ 80 |  | 129 to 131
CC1(C)CC(Cc2cnccn2)N=C(c2cnc3c(F)c(F)ccc3c2)S1 (stereo not drawn) [E.05, 2-(7,8-difluoro-3-quinolyl)-6,6-dimethyl-4-(pyrazin-2-ylmethyl)-4,5-dihydro-1,3-thiazine] | ≥ 80 |  | ≥ 80 |  | 
CC1(C)CC(Cc2cccnc2)N=C(c2cnc3c(F)c(F)ccc3c2)S1 (stereo not drawn) [E.06, 2-(7,8-difluoro-3-quinolyl)-6,6-dimethyl-4-(3-pyridylmethyl)-4,5-dihydro-1,3-thiazine] | ≥ 80 | ≥ 80 | ≥ 80 |  | 
CC1(C)CC(Cc2ccsc2)N=C(c2cnc3c(F)c(F)ccc3c2)S1 (stereo not drawn) [E.07, 2-(7,8-difluoro-3-quinoyl)-6,6-dimethyl-4-(3-thienylmethyl)-4,5-dihydro-1,3-thiazine] | ≥ 80 | ≥ 80 | ≥ 80 |  | 
CC1(C)CC(Cc2ccc(Cl)nc2)N=C(c2cnc3c(F)c(F)ccc3c2)O1 (stereo not drawn) [E.09, 4-[(6-chloro-3-pyridyl)methyl]-2-(7,8-difluoro-3-quinolyl)-6,6-dimethyl-4,6-dihydro-1,3-oxazine] | ≥ 80 |  | ≥ 80 | ≥ 80 | 
CC1(C)CC(Cn2cc(Cl)cn2)N=C(c2cnc3c(F)c(F)ccc3c2)S1 (stereo not drawn) [E.10, 4-[(4-chloropyrazol-1-yl)methyl]-2-(7,8-difluoro-3-quinolyl)-6,6-dimethyl-4,5-dihydro-1,3-thiazine] | ≥ 80 |  | ≥ 80 | ≥ 80 | 
CC1(C)CC(Cn2ccc(Cl)n2)N=C(c2cnc3c(F)c(F)ccc3c2)S1 (stereo not drawn) [E.11, 4-[(3-chloropyrazol-1-yl)methyl]-2-(7,8-difluoro-3-quinolyl)-6,6-dimethyl-4,5-dihydro-1,3-thiazine] | ≥ 80 |  | ≥ 80 | ≥ 80 | 
CC1(C)CC(Cn2ccc(C(F)F)n2)N=C(c2cnc3c(F)c(F)ccc3c2)S1 (stereo not drawn) [E.12, 4-[[3-(difluoromethyl)pyrazol-1-yl]methyl]-2-(7,8-difluoro-3-quinolyl)-6,6-dimethyl-4,5-dihydro-1,3-thiazine] | ≥ 80 |  | ≥ 80 | ≥ 80 | 
CC1(C)CC(Cc2cscn2)N=C(c2cnc3c(F)c(F)ccc3c2)O1 (stereo not drawn) [E.13, 2-(7,8-difluoro-3-quinolyl)-6,6-dimethyl-4-(thiazol-4-ylmethyl)-4,5-dihydro-1,3-oxazine] | ≥ 80 |  | ≥ 80 | ≥ 80 | 
CC1(C)CC(Cc2nccs2)N=C(c2cnc3c(F)c(F)ccc3c2)S1 (stereo not drawn) [E.14, 2-(7,8-difluoro-3-quinolyl)-6,6-dimethyl-4-(thiazol-2-ylmethyl)-4,5-dihydro-1,3-thiazine] | ≥ 80 |  | ≥ 80 | ≥ 80 | 
CC1(C)CC(Cc2nccs2)N=C(c2cnc3c(F)c(F)ccc3c2)O1 (stereo not drawn) [E.15, 2-(7,8-difluoro-3-quinolyl)-6,6-dimethyl-4-(thiazol-2-ylmethyl)-4,5-dihydro-1,3-oxazine] | ≥ 80 |  | ≥ 80 | ≥ 80 | 105 to 113
CC1(C)CC(Cc2cncs2)N=C(c2cnc3c(F)c(F)ccc3c2)S1 (stereo not drawn) [E.16, 2-(7,8-difluoro-3-quinolyl)-6,6-dimethyl-4-(thiazol-5-ylmethyl)-4,5-dihydro-1,3-thiazine] | ≥ 80 |  | ≥ 80 | ≥ 80 | 
CC1(C)CC(Cn2cc(F)cn2)N=C(c2cnc3c(F)c(F)ccc3c2)S1 (stereo not drawn) [E.17, 2-(7,8-difluoro-3-quinolyl)-4-[(4-fluoropyrazol-1-yl)methyl]-6,6-dimethyl-4,5-dihydro-1,3-thiazine] | ≥ 80 |  | ≥ 80 |  | 
CC1(C)CC(Cn2cc(C(F)(F)F)cn2)N=C(c2cnc3c(F)c(F)ccc3c2)S1 (stereo not drawn) [E.18, 2-(7,8-difluoro-3-quinolyl)-6,6-dimethyl-4-[[4-(trifluoromethyl)pyrazol-1-yl]methyl]-4,5-dihydro-1,3-thiazine] | ≥ 80 |  |  |  | 
CC1(C)CC(Cc2cncs2)N=C(c2cnc3c(F)c(F)ccc3c2)O1 (stereo not drawn) [E.19, 2-(7,8-difluoro-3-quinolyl)-6,6-dimethyl-4-(thiazol-5-ylmethyl)-4,5-dihydro-1,3-oxazine] | ≥ 80 |  | ≥ 80 |  | 122 to 127
CC1(C)CC(Cc2cccnc2)N=C(c2cnc3c(F)cccc3c2)S1 (stereo not drawn) [E.20, 2-(8-fluoro-3-quinolyl)-6,6-dimethyl-4-(3-pyridylmethyl)-4,5-dihydro-1,3-thiazine] |  |  |  | ≥ 80 | 
CC1(C)CC(Cc2cccnc2)N=C(c2cnc3c(F)cccc3c2)O1 (stereo not drawn) [E.22, 2-(8-fluoro-3-quinolyl)-6,6-dimethyl-4-(3-pyridylmethyl)-4,5-dihydro-1,3-oxazine] | ≥ 80 |  | ≥ 80 |  | 
CC1(C)CC(Cc2ccsc2)N=C(c2cnc3c(F)cccc3c2)S1 (stereo not drawn) [E.23, 2-(8-fluoro-3-quinolyl)-6,6-dimethyl-4-(3-thienylmethyl)-4,5-dihydro-1,3-thiazine] | ≥ 80 | ≥ 80 | ≥ 80 |  | 
CC1(C)CC(Cc2ccc(F)nc2)N=C(c2cnc3c(F)c(F)ccc3c2)S1 (stereo not drawn) [E.24, 2-(7,8-difluoro-3-quinolyl)-4-[(6-fluoro-3-pyridyl)methyl]-6,6-dimethyl-4,5-dihydro-1,3-thiazine] | ≥ 80 | ≥ 80 | ≥ 80 |  | 
CC1(C)CC(Cc2ccsc2)N=C(c2cnc3c(F)c(F)ccc3c2)[S+]1[O-] (stereo not drawn) [E.25, 2-(7,8-difluoro-3-quinolyl)-6,6-dimethyl-4-(3-thienylmethyl)-4,5-dihydro-1,3-thiazine 1-oxide] | ≥ 80 | ≥ 80 |  |  | 
CC1(C)CC(Cc2ccncc2)N=C(c2cnc3c(F)c(F)ccc3c2)S1 (stereo not drawn) [E.26, 2-(7,8-difluoro-3-quinolyl)-6,6-dimethyl-4-(4-pyridylmethyl)-4,5-dihydro-1,3-thiazine] | ≥ 80 |  | ≥ 80 |  | 

Source: patent publication US20230142565A1, “MICROBIOCIDAL QUINOLINE DIHYDRO-(THIAZINE)OXAZINE DERIVATIVES” (SYNGENTA CROP PROTECTION AG, priority 2020, published 2023)
